Experiments:
MAM-treated rats = details: cited from earlier work
aged-impaired (AI) rats = test: Radial Arm Maze (RAM) behavioral task, spatial memory retention; format: in vivo, rat
Method: The effects of methyl 3,5-diphenylpyridazine-4-carboxylate on the in vivo spatial memory retention of aged-impaired (AI) rats were assessed in a Radial Arm Maze (RAM) behavioral task using vehicle control and four different dosage levels of methyl 3,5-diphenylpyridazine-4-carboxylate (0.1 mg/kg, 0.3 mg/kg, 1 mg/kg and 3 mg/kg, ip). RAM behavioral tasks were performed on eight AI rats. All five treatment conditions (vehicle and four dosage levels) were tested on all eight rats.
The RAM apparatus used consisted of eight equidistantly-spaced arms. An elevated maze arm (7 cm width×75 cm length) projected from each facet of an octagonal center platform (30 cm diameter, 51.5 cm height). Clear side walls on the arms were 10 cm high and were angled at 65° to form a trough. A food well (4 cm diameter, 2 cm deep) was located at the distal end of each arm. Froot Loops™ (Kellogg Company) were used as rewards. Blocks constructed of Plexiglas™ (30 cm height×12 cm width) could be positioned to prevent entry to any arm. Numerous extra maze cues surrounding the apparatus were also provided.
The AI rats were initially subjected to a pre-training test (Chappell et al. Neuropharmacology 37: 481-487, 1998). […]

GABAA α5 receptor = biological target: T1, GABAA α5 receptor (Rattus norvegicus, UniProt P18508+P19969); test: GABAA α5 receptor occupancy with Ro 15-4513 tracer, hippocampus vs cerebellum; format: in vivo, Long Evans rats; details: for Ro 15-4513 binding in hippocampus / cerebellum levels (binding) of Ro 15-4513: 0.01-10 mg/kg
T1 construct: from tissue
T1 sequence (P19969 32-464 limits assumed): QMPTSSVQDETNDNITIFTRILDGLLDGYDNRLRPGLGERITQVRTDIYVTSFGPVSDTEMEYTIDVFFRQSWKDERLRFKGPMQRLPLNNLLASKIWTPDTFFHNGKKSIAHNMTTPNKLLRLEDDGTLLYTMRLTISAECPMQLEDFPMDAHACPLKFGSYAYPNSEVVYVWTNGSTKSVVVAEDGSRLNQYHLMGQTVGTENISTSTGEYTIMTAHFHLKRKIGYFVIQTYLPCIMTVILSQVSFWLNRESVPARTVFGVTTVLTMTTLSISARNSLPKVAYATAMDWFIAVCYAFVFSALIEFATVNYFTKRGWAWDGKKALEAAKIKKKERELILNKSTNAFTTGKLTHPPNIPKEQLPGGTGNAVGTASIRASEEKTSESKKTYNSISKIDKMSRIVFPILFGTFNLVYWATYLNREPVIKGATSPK
T1 sequence (P18508 39-466): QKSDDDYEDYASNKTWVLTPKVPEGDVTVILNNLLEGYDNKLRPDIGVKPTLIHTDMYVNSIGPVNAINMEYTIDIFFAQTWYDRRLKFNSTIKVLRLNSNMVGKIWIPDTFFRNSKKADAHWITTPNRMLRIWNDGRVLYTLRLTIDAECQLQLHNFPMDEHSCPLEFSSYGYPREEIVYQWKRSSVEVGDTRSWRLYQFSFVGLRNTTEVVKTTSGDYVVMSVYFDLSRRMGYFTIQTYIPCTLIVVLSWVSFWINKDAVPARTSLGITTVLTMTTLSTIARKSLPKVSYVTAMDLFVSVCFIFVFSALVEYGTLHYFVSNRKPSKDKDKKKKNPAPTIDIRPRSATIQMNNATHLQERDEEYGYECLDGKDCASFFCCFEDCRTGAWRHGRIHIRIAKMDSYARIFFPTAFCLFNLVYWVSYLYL
Method: Food and water were available ad libitum.
The (100 μl) supernatant solution was diluted by […] of sterile water (pH 6.5).

[1] = i.v., listed as Methyl 3,5-diphenylpyridazine-4-carboxylate

C#Cc1ccc2c(c1)C(c1ccccc1F)=N[C@H](C)c1c(C(=O)OCC)ncn1-2 [SH-053-2′F-R—CH3]
increased locomotor response to amphetamine in MAM-treated rats (MAM-treated rats; rat, in vivo): reduced
number of spontaneously active DA neurons in the ventral tegmental area (VTA) of MAM rats (MAM-treated rats; systemic or infused into the ventral HPC): to levels observed in saline-treated rats

CCOC(=O)c1ncn2c1Cn1c(C)nnc1-c1cc(OC)ccc1-2 [ethyl 3-methoxy-7-methyl-9H-benzo[f]imidazo[1,5-a][1,2,4]tri]
memory performance relative to vehicle control (aged-impaired (AI) rats; 3 mg/kg, four-hour delay, p=0.004 or p=0.018): significantly improved memory performance
Ro 15-4513 binding in hippocampus (GABAA α5 receptor; i.v.): reduced
cerebellum levels (binding) of Ro 15-4513 (GABAA α5 receptor; i.v.): without affecting

COC(=O)c1c(-c2ccccc2)cnnc1-c1ccccc1 [methyl 3,5-diphenylpyridazine-4-carboxylate]
memory performance relative to vehicle control (aged-impaired (AI) rats; 3 mg/kg ip, two-hour delay, t(7)=4.233, p=0.004): significantly improved memory performance
Ro 15-4513 binding in hippocampus (GABAA α5 receptor; i.v.): blocked
cerebellum levels (binding) of Ro 15-4513 (GABAA α5 receptor; i.v.): did not affect
Ro 15-4513 binding in hippocampus (GABAA α5 receptor; [1]): dose-dependently reduced
cerebellum levels (binding) of Ro 15-4513 (GABAA α5 receptor; [1]): without affecting
RO required for cognitive efficacy in this model (GABAA α5 receptor; from exposure in aged rats at 3 mg/kg, i.p.): 30-40%
GABAA α5 receptors occupied at exposures behaviorally active in aged-impaired rats (GABAA α5 receptor; hippocampus exposure-occupancy relationship (FIG. 4)): about 32%
ED50 of receptor occupancy, ratio method (GABAA α5 receptor; i.v.): 1.8 mg/kg
